Test results from US11753433B2, “Methods of synthesizing substituted purine compounds” (Epizyme, Inc., priority 2013, dated 2023).

Key:
Assay type in all cases: physicochemical
[1] = Solid-state photostability
Experimental: The solid-state photostability of EP-1 trihydrate (x is 3) was assessed upon exposure to UV/Vis light according to ICH guidelines. Loss of claim %, loss of area %, and degradates were evaluated versus dark control samples.
Solid-State Photostability: Weighed ˜5 mg Form B into glass vials with 2 vials covered with foil as the controls. Put these 2 samples with their controls into chamber and expose them to Vis (10 Kilo lux) for 120 hrs followed by UV (10 W/m^2) for 20 hrs (per ICH guidelines). At the end of Vis, take 1 sample and 1 control out for analysis and the others were taken out after both Vis and UV exposure.

Solid-state stability = experiment: Solid-state stability
Experimental: Chemical Stability: Accurately weighed ˜10 mg Form B was placed into four 10-ml volumetric flasks. The samples were stored at 5° C. closed dish, 25° C./57% RH open dish, 40° C./75% RH open dish, and 60° C. closed dish for 7 days. The sample stored at 5° C. was used as a control. Assay and total related substances for each sample were checked at the end of 7 days.
Physical Stability: Accurately weighed ˜15 mg of Form B was placed into 5-ml glass vials and the samples were stored at 5° C. closed dish, 25° C./57% RH open dish, 40° C./75% RH open dish, and 60° C. closed dish for 7 days. Samples were analyzed by XRPD and TGA (FIG. 24).

[2] = Solubility in Simulated Gastric Fluid (SGF) at 37° C.; details: for Resulting Solid: XRPD
Experimental: To study if Form A and Form B would perform differently in stomach, the solubilities of Form A and Form B were measured in Simulated Gastric Fluid (SGF, see below for SGF preparation) at 37° C. […] The remaining solids after each time point were subject to XRPD analysis. […] Weigh appropriate amount of hydrochloride (HCl) and sodium chloride (NaCl) into a 1-L flask followed by addition of 1-L deionized water. The mixture was stirred until all solids are dissolved. Check pH value with a pH-meter and adjust the pH to 1.8 with HCl (1N) or NaOH (1N).

[3] = Slurry experiments using Form B and Form C (relative stability); details: RT
Experimental: The relative stability between Form B and Form C was investigated as a function of water activity at room temperature using ACN/H2O. In general, about 10-30 mg Form B was added to a 5-ml glass vial with 0.5 ml corresponding solvents to get suspensions at room temperature. Then 10-30 mg Form C was added to the suspensions which were kept stirring for 24 h. The water activity was calculated using the UNIFAC model.

[4] = Bulk control (covered with foil), Vis Stability (1.2 Mil lux-hours)
[5] = Bulk control (covered with foil), Vis-UV stability (1.2 Mil lux-hours + 200 Watt-hours/m^2)
[6] = Bulk, Vis Stability (1.2 Mil lux-hours)
[7] = Bulk, Vis-UV stability (1.2 Mil lux-hours + 200 Watt-hours/m^2)
[8] = 5° C. Closed Dish, 7 Days (control)
[9] = 25° C./57% RH Open Dish, 7 Days
[10] = 40° C./75% RH Open Dish, 7 Days

## CC(C)N(C[C@H]1O[C@@H](n2cnc3c(N)ncnc32)[C@H](O)[C@@H]1O)[C@H]1C[C@@H](CCc2nc3cc(C(C)(C)C)ccc3[nH]2)C1 [Form B, (2R,3R,4S,5R)-2-(6-amino-9H-purin-9-yl)-5-((((1r,3S)-3-(2-(5-(tert-butyl)-1H-benzo[d]imidazol-2-yl)ethyl)cyclobutyl)(isopropyl)amino)methyl)tetrahydrofuran-3,4-diol trihydrate]
[1]; [4]
  % area: 99.7%
  % claim: 100.0%
[1]; [5]
  % area: 99.8%
  % claim: 100.0%
[1]; [6]
  % area: 99.8%
  % claim: 101.1%
[1]; [7]
  % area: 99.8%
  % claim: 99.6%
[1]; bulk, full ICH photostability exposure
  solid-state photostability (in words): stable upon exposure to full ICH photostability requirement
Solid-state stability; [8]
  Chemical Area % (100% − TRS %): 99.1%
  Physical TGA (%): 8.63%
  Physical XRPD: Form B
Solid-state stability; 5° C. Closed Dish, 7 Days (used as standard)
  Chemical % Claim (Cs/Ci × 100%): 100.0^& %
Solid-state stability; [9]
  Chemical % Claim (Cs/Ci × 100%): 100.7%
  Chemical Area % (100% − TRS %): 99.0%
  Physical TGA (%): 8.66%
  Physical XRPD: Form B
Solid-state stability; [10]
  Chemical % Claim (Cs/Ci × 100%): 101.0%
  Chemical Area % (100% − TRS %): 99.0%
  Physical TGA (%): 8.64%
  Physical XRPD: Form B
Solid-state stability; 60° C. Closed Dish, 7 Days
  Chemical % Claim (Cs/Ci × 100%): 100.7%
  Chemical Area % (100% − TRS %): 99.1%
  Physical TGA (%): 8.49%
  Physical XRPD: Form B
[2]
  Final pH: 5.3
[2]; 15 min
  Resulting Solid: Type B
[2]; 30 min
  Resulting Solid: Type B
[2]; 60 min
  Resulting Solid: Type B
[2]; Simulated Gastric Fluid (SGF), pH 1.8, simulated gastric fluid, thermodynamic from solid, 15 min, calculated using free base content
  solubility at 15 min: 5400 µg/mL
[2]; Simulated Gastric Fluid (SGF), pH 1.8, simulated gastric fluid, thermodynamic from solid, 30 min, calculated using free base content
  solubility at 30 min: 5400 µg/mL
[2]; Simulated Gastric Fluid (SGF), pH 1.8, simulated gastric fluid, thermodynamic from solid, 60 min, calculated using free base content
  solubility at 60 min: 5600 µg/mL
[3]
  water activity at which Form B is thermodynamically more stable than Form C: ≥ 0.30
